From patent USRE42890E1, “Furazanobenzimidazoles” (Basilea Pharmaceutica AG, priority 2003, dated 2011)
Where two headings read alike, the source gives them in different places.

Assays:
[1] = tested on: Jurkat; assay: MTS proliferation assay, Jurkat; format: cell-based, human; details: 72 h incubation, read-out: MTS proliferation assay IC 50 Jurkat
Outline: (§1)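 A 72 h exposure to compound (final 0.3–10 μM, four levels) was followed by 3 h MTS incubation and an A492 read.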

[2] = tested on: Jily; assay: MTS proliferation assay, Jily; format: cell-based; details: 72 h incubation, read-out: MTS proliferation assay IC 50 Jily
Outline: (§2)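 Proliferation is followed by MTS conversion, measured as absorbance at 492 nm. Cells are exposed for 72 h to four fixed compound concentrations (10 μM down to 0.3 μM) under 37° C, 7.5% CO2 culture conditions.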

[3] = tested on: HT1080; assay: MTS proliferation assay, HT1080; format: cell-based, human; details: HT1080, 72 h incubation, read-out: MTS proliferation assay IC 50 HT1080
Outline: as §1

[4] = tested on: HeLa; assay: MTS proliferation assay, HeLa; format: cell-based, human; details: 72 h incubation, read-out: MTS proliferation assay IC 50 HeLa
Outline: as §1

[5] = tested on: MRC5; assay: MTS proliferation assay, MRC5; format: cell-based; details: MRC5, 72 h incubation, read-out: MTS proliferation assay IC 50 MRC5
Outline: as §2

[6] = tested on: adherent cells or suspension cells; assay: Hoechst 33342 nuclear staining (fraction of apoptotic nuclei); format: cell-based; set-up: key: 0 relating to no activity; 1 relating to weak activity comprising less than 70% of the cells; score 2 relating to strong activity comprising more than 70% of the cells

Row | IC50 [1] [µM] | SMILES | IC50 [2] [µM] | Hoechst 33342 nuclear staining score ([6]; H460, conc 0.01 μm) | Hoechst 33342 nuclear staining score ([6]; H460, conc 0.1 μm) | Hoechst 33342 nuclear staining score ([6]; H460, conc 1 μm) | Hoechst 33342 nuclear staining score ([6]; HeLa, conc 0.01 μm) | Hoechst 33342 nuclear staining score ([6]; HeLa, conc 0.1 μm) | Hoechst 33342 nuclear staining score ([6]; HeLa, conc 1 μm) | Hoechst 33342 nuclear staining score ([6]; Jily, conc 0.01 μm) | Hoechst 33342 nuclear staining score ([6]; Jily, conc 0.1 μm) | Hoechst 33342 nuclear staining score ([6]; Jily, conc 1 μm) | Hoechst 33342 nuclear staining score ([6]; Jurkat, conc 0.01 μm) | Hoechst 33342 nuclear staining score ([6]; Jurkat, conc 0.1 μm) | Hoechst 33342 nuclear staining score ([6]; Jurkat, conc 1 μm) | Hoechst 33342 nuclear staining score ([6]; MRC5, conc 0.01 μm) | Hoechst 33342 nuclear staining score ([6]; MRC5, conc 0.1 μm) | Hoechst 33342 nuclear staining score ([6]; MRC5, conc 1 μm) | Hoechst 33342 nuclear staining score ([6]; PBLs, conc 0.01 μm) | Hoechst 33342 nuclear staining score ([6]; PBLs, conc 0.1 μm) | Hoechst 33342 nuclear staining score ([6]; PBLs, conc 1 μm) | further results
1 | – | COc1cc(C(=O)Cn2c(-c3nonc3N)nc3ccccc32)ccc1O [Example 74, 4-[1-(3-Methoxy-4-hydroxyphenacyl)-1H-benzimidazol-2-yl]-furazan-3-yl-amine] | 0.1 to 1 | 0 | 0 | 2 (score 2 relating to strong activity comprising more than 70% of the cells) | 0 | 0 | 2 (score 2 relating to strong activity comprising more than 70% of the cells) | 0 | 0 | 2 (score 2 relating to strong activity comprising more than 70% of the cells) | 0 | 0 | 2 (score 2 relating to strong activity comprising more than 70% of the cells) | 0 | 0 | 1 (1 relating to weak activity comprising less than 70% of the cells) | 0 | 0 | 0 | IC50 ([1]; Homo sapiens): 0.1 to 1 µM; IC50 ([3]; Homo sapiens, HT-1080): 0.1 to 1 µM; IC50 ([4]; Homo sapiens): 0.1 to 1 µM; IC50 ([5]; Homo sapiens): 0.1 to 1 µM
2 | 0.1 to 1 | COc1cc(C(=O)Cn2c(-c3nonc3N)nc3ccccc32)ccc1OC(C)=O [Example 75] | 0.1 to 1 | 0 | 0 | 2 (score 2 relating to strong activity comprising more than 70% of the cells) | 0 | 0 | 1 (1 relating to weak activity comprising less than 70% of the cells) | 0 | 0 | 2 (score 2 relating to strong activity comprising more than 70% of the cells) | 0 | 0 | 2 (score 2 relating to strong activity comprising more than 70% of the cells) | 0 | 0 | 1 (1 relating to weak activity comprising less than 70% of the cells) | 0 | 0 | 0 | IC50 [3]: 0.1 to 1 µM; IC50 [4]: 0.1 to 1 µM; IC50 [5]: 0.1 to 1 µM
3 | 0.1 to 1 | COc1ccc(C(=O)Cn2c(-c3nonc3N)nc3ccccc32)cc1OC [Example 76] | 0.01 to 0.1 | 0 | 1 (1 relating to weak activity comprising less than 70% of the cells) | 2 (score 2 relating to strong activity comprising more than 70% of the cells) | 0 | 0 | 2 (score 2 relating to strong activity comprising more than 70% of the cells) | 0 | 2 (score 2 relating to strong activity comprising more than 70% of the cells) | 2 (score 2 relating to strong activity comprising more than 70% of the cells) | 0 | 2 (score 2 relating to strong activity comprising more than 70% of the cells) | 2 (score 2 relating to strong activity comprising more than 70% of the cells) | 0 | 0 | – | 0 | 0 | 0 | IC50 [3]: 0.1 to 1 µM; IC50 [4]: 0.1 to 1 µM; IC50 [5]: 0.1 to 1 µM
4 | 0.1 to 1 | COCCOc1ccc(C(=O)Cn2c(-c3nonc3N)nc3ccccc32)cc1 [Example 77] | 0.1 to 1 | 0 | 0 | 2 (score 2 relating to strong activity comprising more than 70% of the cells) | 0 | 0 | 2 (score 2 relating to strong activity comprising more than 70% of the cells) | 0 | 0 | 2 (score 2 relating to strong activity comprising more than 70% of the cells) | 0 | 0 | 2 (score 2 relating to strong activity comprising more than 70% of the cells) | 0 | 0 | 1 (1 relating to weak activity comprising less than 70% of the cells) | 0 | 0 | 0 | IC50 [3]: 0.1 to 1 µM; IC50 [4]: 0.1 to 1 µM; IC50 [5]: 0.1 to 1 µM
5 | < 0.01 | Nc1ccc(C(=O)Cn2c(-c3nonc3N)nc3ccccc32)cn1 [Example 78] | < 0.01 | 2 (score 2 relating to strong activity comprising more than 70% of the cells) | 2 (score 2 relating to strong activity comprising more than 70% of the cells) | 2 (score 2 relating to strong activity comprising more than 70% of the cells) | 2 (score 2 relating to strong activity comprising more than 70% of the cells) | 2 (score 2 relating to strong activity comprising more than 70% of the cells) | 2 (score 2 relating to strong activity comprising more than 70% of the cells) | 2 (score 2 relating to strong activity comprising more than 70% of the cells) | 2 (score 2 relating to strong activity comprising more than 70% of the cells) | 2 (score 2 relating to strong activity comprising more than 70% of the cells) | 2 (score 2 relating to strong activity comprising more than 70% of the cells) | 2 (score 2 relating to strong activity comprising more than 70% of the cells) | 2 (score 2 relating to strong activity comprising more than 70% of the cells) | 1 (1 relating to weak activity comprising less than 70% of the cells) | 2 (score 2 relating to strong activity comprising more than 70% of the cells) | 2 (score 2 relating to strong activity comprising more than 70% of the cells) | 0 | 0 | 0 | IC50 [3]: < 0.01 µM; IC50 [4]: < 0.01 µM; IC50 [5]: < 0.01 µM
